Data reported in paper PMC8803428, “Pharmacokinetics of Ginsenoside Rb1, Rg3, Rk1, Rg5, F2, and Compound K from Red Ginseng Extract in Healthy Korean Volunteers” (Evidence-based Complementary and Alternative Medicine : eCAM, 2022).
Like-named read-outs stand apart in the source and are kept apart here.

What was measured:
[1] = Pharmacokinetics of ginsenosides in plasma after a single oral dose of RG or BRG capsules in healthy Korean men (LC-MS/MS); format: in vivo, human; conditions: in vivo; for half-life: T 1/2; for Tmax: T max
From the text: This study was designed as a randomized, open-label, single-dose, crossover study with washout every 1 week to evaluate the pharmacokinetics and safety of ginsenosides. Subjects were randomly assigned to either the RG or BRG group during the first period of the study (Figure 2). After 1 week of the washout period, other products that were not received in the first period were provided. All enrolled subjects were hospitalized at Bestian Clinical Trial Center on the day before taking RG or BRG. Subjects were provided regular meals, and additional food intake was restricted after the meal. The next day, the subjects who had maintained the fasting state for 10 h took the capsules corresponding to 5 g of RG and BRG orally. Water was restricted for 1 h before and after intake, and food intake was restricted for 4 h after administration. After 4 h, all subjects received a standardized meal. In addition, lying down or sleeping was prohibited for 8 h after oral administration. Blood samples (5 mL) were collected before dosing and at each time point (0, 0.5, 1, 2, 4, 6, 8, 10, 12, and 24 h) after dosing. All blood samples were collected in heparin-treated tubes. The blood samples were promptly centrifuged at 3,000 rpm for 10 min at 4°C, and the plasma samples obtained were stored in a deep freezer at −70 ± 10°C until assay.
All analyses were performed using an Agilent 1200 series HPLC system (Agilent) with a Luna Phenyl-Hexyl column (2.0 × 150 mm, 5 μm; Phenomenex, CA, USA). The mobile phase comprised water (solvent A) and acetonitrile (solvent B) containing 0.1% formic acid. The flow rate of the mobile phase was 0.25–0.35 mL/min. The initial condition of 70% solvent A was set to 5% solvent A over 15 min. The content of ginsenosides in human plasma was measured using an API 5500 mass spectrometer (AB Sciex, Foster City, CA, USA) capable of multiple reaction monitoring (MRM). The parent-daughter ion pairs monitored were 845.5 ⟶ 799.6 for Rg1, 1153.6 ⟶ 1107.5 for Rb1, 829.4 ⟶ 783.5 for Rg3, and F2, 811.4 ⟶ 161.0 for Rg5 and Rk1, 667.4 ⟶ 161.0 for CK, and 825.4 ⟶ 779.3 for digoxin as an IS in the negative ion mode. Nitrogen gas was used in the nebulizer and the collision cell. The ion spray voltage was set to 5500 V.
Standard plasma samples were prepared such that each ginsenoside was in the concentration range of 0.5–100 ng/mL; 10 μL of a standard mixture of six kinds of ginsenosides (Rg1, Rb1, Rg5 + Rk1, F2, and CK) was added to 90 μL of blank human plasma. Rg3 was prepared in the concentration range of 0.2–40 ng/mL. Standard plasma samples (100 μL) were added to 200 μL of methanol containing 50 ng/mL digoxin, an IS. These were mixed for 1 min and then centrifuged at 12,000 rpm for 5 min at 4°C. Then, 100 μL of the supernatant was transferred to an LC vial, and 10 μL was injected into the LC-MS/MS system. Plasma samples stored at −70°C were thawed at room temperature. Samples for LC-MS/MS analysis were pretreated in the same manner as standard plasma samples.
Plasma concentrations of seven ginsenosides were calculated from calibration curves by calculating the ratio of the peak area of the test substance to the peak area of the IS. The following pharmacokinetic parameters were measured using Phoenix WinNonlin 6.3 (Pharsight Co, CA, USA): time to reach maximum observed plasma drug concentration (Tmax), maximum observed plasma drug concentration (Cmax), area under the plasma drug concentration-time curve from 0 h to the final measured time (AUC(0–t)), area under the plasma drug concentration–time curve from 0 h to infinity (AUC(0–∞)), and terminal elimination half-life (t1/2).

[2] = Stability of the ginsenosides in human plasma (QC samples, LC-MS/MS method validation); format: in vitro ADME; conditions: human; for Short-term stability, concentration found: 19 h; for Autosampler stability, concentration found: 34 h; for Long-term stability, concentration found: 50 days
Method: The LC-MS/MS method was validated to determine selectivity, lower limits of quantification (LLOQ), accuracy, precision, recovery, matrix effect, and stability, according to the guideline for validating the bioanalytical method. The selectivity of the method was evaluated by comparison of blank plasma from six different men to the corresponding spiked plasma sample at the level of LLOQ to investigate the potential interferences at the LC chromatographic conditions for ginsenoside analytes and IS. The signal-to-noise ratio (S/N) of the LLOQ sample was at least five times the response compared to the blank samples. Each calibration curve was constructed by plotting the peak area ratio (y) of the analyte to IS against the spiked concentrations (x) of each analyte. Linearity was assessed by weighted (1/x^2) least squares regression analysis. The LLOQ was defined as the lowest concentration on the calibration curve with an S/N ratio of 10, where the precision and accuracy bias were within ±20% by five replicate analyses. The intra- and interday precision and accuracy assessments were performed at four concentrations with five replicates on the same day and three consecutive days, respectively. The acceptance criterion recommended by the guideline of precision and the accuracy was ±15% of the nominal concentration. The recovery of the seven ginsenosides was determined at three QC levels with three replicates by comparing the peak areas of plasma extracts spiked with analytes before extraction with those of the postextraction spiked samples at the same concentration. The matrix effects were investigated by comparing the peak areas of the analytes dissolved in the pretreated blank plasma with the corresponding concentrations prepared in the reconstitution solution with three replicates. The stability of the analytes in human plasma was assessed by analyzing five replicates of plasma samples at low, medium, and high QC levels under four different conditions. Short-term stability was evaluated after the exposure of QC samples to room temperature for 19 h before processing and analysis. The freeze and thaw stability was tested after three repeated cycles of thawing at room temperature and freezing at approximately −70°C. The long-term stability was assessed after storage at approximately −70°C for 50 days. The post-preparative stability was examined after the exposure of processed samples at ambient temperature (stored in an HPLC autosampler) for 34 h.

[3] = parameters: method as in earlier work; conditions: after oral Korean Red ginseng extract, ref 25 (Kim et al.); cited from earlier work

SMILES	detection in plasma at the initial time point (0 h) of the second treatment period [1]	AUC(0-inf) ([1]; male, human, po) [ng·h/mL]	half-life ([1]; male, human, po) [h]	Tmax ([1]; male, human, po) [h]	Freeze-thaw stability, concentration found ([2]; 1.5 ng/mL) [%]	Freeze-thaw stability, concentration found ([2]; 80 ng/mL) [%]	Short-term stability, concentration found ([2]; 1.5 ng/mL) [%]	Short-term stability, concentration found ([2]; 80 ng/mL) [%]	Autosampler stability, concentration found ([2]; 1.5 ng/mL) [%]	Autosampler stability, concentration found ([2]; 80 ng/mL) [%]	Long-term stability, concentration found ([2]; 1.5 ng/mL) [%]	Long-term stability, concentration found ([2]; 80 ng/mL) [%]	also measured
CC(C)=CCCC(C)(OC1OC(CO)C(O)C(O)C1O)C1CCC2(C)C1C(O)CC1C3(C)CCC(O)C(C)(C)C3CCC12C (stereo not shown) [CK, compound K]	did not detect	457 ± 259	7.72 ± 4.66	8.15 ± 10.2	104.03 ± 7.57	96.17 ± 2.51	99.90 ± 4.38	98.69 ± 2.03	101.24 ± 4.59	99.56 ± 1.44	103.25 ± 4.03	103.02 ± 5.53	AUC(0–t) of CK, times higher than that of F2 ([1]; male, human): > 5.03 times; mean Tmax in the RG group relative to the BRG group (times lower) ([1]; male, human): approximately 1.71 times; AUC(0–t) in the BRG group, times higher than in the RG group ([1]; male, human, po): > 28.0 times; AUC(0–∞) ([1]; male, human, po): 3.72 ± 7.91 ng·h/mL; T 1/2 ([1]; male, human, po): 1.36 ± 2.61 h; T max ([1]; male, human, po): 4.77 ± 3.61 h; Cmax [3]: 8.35 ± 1.97 ng/mL; half-life of CK compared with that of Rb1 [3]: seven times shorter
CC(C)=CCC[C@](C)(O[C@@H]1O[C@H](CO)[C@@H](O)[C@H](O)[C@H]1O)[C@H]1CC[C@]2(C)[C@@H]1[C@H](O)C[C@@H]1[C@@]3(C)CC[C@H](O[C@@H]4O[C@H](CO)[C@@H](O)[C@H](O)[C@H]4O)C(C)(C)[C@@H]3CC[C@]12C [Ginsenoside F2, ginsenoside F2]	did not detect	90.7 ± 43	9.77 ± 7.71	6.62 ± 1.71	98.29 ± 4.06	95.95 ± 1.10	99.21 ± 7.70	96.53 ± 4.04	99.02 ± 8.01	96.29 ± 0.99	101.83 ± 3.76	99.02 ± 2.04	AUC(0-t) ([1]; male, human, po, AUC(0–t)): 74.1 ± 33 ng·h/mL; Cmax ([1]; male, human, po, C max): 5.83 ± 2.35 ng/mL
